Where “and” joins values, the source holds several entries; their conditions need not be identical. Identical values can stand only once.
Experiments:
[1] = target: T1, EcThrRS_A316N (Escherichia coli, UniProt P0A8M3, A316N); assay: ATP hydrolysis assay; format: biochemical; settings: for ATP hydrolysis activity, inhibitory curve data point: OB, replicates, sheet Fig.S4b
T1 construct: The E. coli ThrRS (residues 242-642, Supplementary Note 1) wild type; 6xHis (C); made in house; host or cells: E. coli BL21 (DE3)
Procedure: (§1) 200 nM EcThrRS wide type and mutants, ObaO and ObaO_S464G mutant were incubated with serially diluted OB (0 to 10 μM for EcThrRS, 0 to 40 μM for ObaO) in a buffer containing 25 mM HEPES pH 7.5, 50 mM NaCl, 40 mM MgCl2, 30 mM KCl, 0.01 mg/mL bovine serum albumin (BSA), and 0.004% Tween-20 at 37 °C for 4 h and then mixed 1:1 with a substrate mixture containing 4 μM ATP, 40 μM L-threonine, 25 mM HEPES pH 7.5, 50 mM NaCl, 40 mM MgCl2, 30 mM KCl, 0.01 mg/mL BSA, and 0.004% Tween-20. The ATP hydrolysis reaction was performed at 37 °C for 4 h.
(§2) After incubation, the detection solution from the Kinase-Glo® luminescent kit (Promega, USA) was added to the reaction system at a 1:1 ratio, and the mixture was gently shaken for 10 min. The chemiluminescence signal was measured using a microplate reader (Tecan, USA). All experiments were performed in four replicates. The data were processed using GraphPad Prism 8 software.

[2] = target: T2, EcThrRS_L489M (Escherichia coli, UniProt P0A8M3, L489M); assay: ATP hydrolysis assay; format: biochemical; settings: for ATP hydrolysis activity, inhibitory curve data point: OB, replicates, sheet Fig.2b
T2 construct: The E. coli ThrRS (residues 242-642, Supplementary Note 1) wild type; 6xHis (C); made in house; host or cells: E. coli BL21 (DE3)
Procedure: as §1, §2

[3] = target: T3, EcThrRS_G463S (Escherichia coli, UniProt P0A8M3, G463S); assay: ATP hydrolysis assay; format: biochemical; settings: for ATP hydrolysis activity, inhibitory curve data point: OB, replicates, sheet Fig.2b
T3 construct: The E. coli ThrRS (residues 242-642, Supplementary Note 1) wild type; 6xHis (C); made in house; host or cells: E. coli BL21 (DE3)
Procedure: as §1, §2

[4] = target: T4, EcThrRS_G463A (Escherichia coli, UniProt P0A8M3, G463A); assay: ATP hydrolysis assay; format: biochemical; settings: ATP hydrolysis activity
T4 construct: The E. coli ThrRS (residues 242-642, Supplementary Note 1) wild type; 6xHis (C); made in house; host or cells: E. coli BL21 (DE3)
Procedure: as §1, §2

[5] = test system: ObaO_WT; assay: ATP hydrolysis assay; format: biochemical, Pseudomonas fluorescens; settings: for ATP hydrolysis activity, inhibitory curve data point: OB, replicates, sheet Fig.S11b
Procedure: as §1, §2

[6] = test system: ObaO_S464G; assay: ATP hydrolysis assay; format: biochemical, Pseudomonas fluorescens; settings: for ATP hydrolysis activity, inhibitory curve data point: OB, replicates, sheet Fig.S11b
Procedure: as §1, §2

[7] = test system: ObaO_WT; assay: Thermal shift assay (TSA); format: binding, Pseudomonas fluorescens
Procedure: (§3) The EcThrRS_WT and L489M/G463S/G463S_Q484A/G463A/A316N mutant proteins, ObaO_WT and ObaO_S464G mutant proteins were prepared at 2 μM in buffer containing 25 mM Tris-HCl pH 7.5, 200 mM NaCl, and 20 μM OB (GlpBio, US) or BN (GlpBio, US) or ddH2O in equal volumes since the compounds were diluted with ddH2O to 1 mM as stocks. […] SYPRO orange dye (Sigma, USA) was diluted in assay buffer containing 25 mM Tris-HCl pH 7.5 and 200 mM NaCl to a 40× concentration, and was added to the mixture to a final 4× concentration. Aliquots (20 μL) were added to a 96-well PCR plate. After complete mixing, the final solutions were heated from 25 to 95 °C at a rate of 0.015 °C/s, and fluorescence signals were monitored by QuantStudio 3 (Applied Biosystems by Thermo Fisher Scientific, USA). The melting temperature (Tm) was calculated through a previously established method[56],[57].

[8] = test system: ObaO_S464G; assay: Thermal shift assay (TSA); format: binding, Pseudomonas fluorescens
Procedure: as §3

[9] = 2 μM protein, 20 μM compound, mean n = 4

T1 sequence (P0A8M3 242-642 A316N): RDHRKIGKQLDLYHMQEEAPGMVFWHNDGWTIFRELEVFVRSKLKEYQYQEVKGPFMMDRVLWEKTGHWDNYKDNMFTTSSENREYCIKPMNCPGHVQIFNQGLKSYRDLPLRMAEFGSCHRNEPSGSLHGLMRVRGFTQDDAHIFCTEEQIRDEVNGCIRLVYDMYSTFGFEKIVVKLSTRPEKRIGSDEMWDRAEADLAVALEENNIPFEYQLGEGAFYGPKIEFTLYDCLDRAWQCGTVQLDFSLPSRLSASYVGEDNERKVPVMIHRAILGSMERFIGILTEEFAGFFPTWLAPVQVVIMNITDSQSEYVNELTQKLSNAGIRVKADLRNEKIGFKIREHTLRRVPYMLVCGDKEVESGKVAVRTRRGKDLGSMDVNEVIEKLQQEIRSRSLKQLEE
T3 sequence (P0A8M3 242-642 G463S): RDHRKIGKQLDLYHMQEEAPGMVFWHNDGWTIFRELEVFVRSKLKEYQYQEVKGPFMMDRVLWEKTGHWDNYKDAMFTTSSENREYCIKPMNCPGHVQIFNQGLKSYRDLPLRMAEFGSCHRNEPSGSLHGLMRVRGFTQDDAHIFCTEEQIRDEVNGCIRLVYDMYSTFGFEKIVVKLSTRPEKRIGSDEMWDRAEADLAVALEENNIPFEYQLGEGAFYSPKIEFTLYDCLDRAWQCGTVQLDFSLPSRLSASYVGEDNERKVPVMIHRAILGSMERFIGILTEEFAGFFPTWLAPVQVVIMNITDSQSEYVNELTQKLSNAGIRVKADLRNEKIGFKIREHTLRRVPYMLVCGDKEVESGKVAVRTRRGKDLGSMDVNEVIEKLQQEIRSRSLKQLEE
T2 sequence (P0A8M3 242-642 L489M): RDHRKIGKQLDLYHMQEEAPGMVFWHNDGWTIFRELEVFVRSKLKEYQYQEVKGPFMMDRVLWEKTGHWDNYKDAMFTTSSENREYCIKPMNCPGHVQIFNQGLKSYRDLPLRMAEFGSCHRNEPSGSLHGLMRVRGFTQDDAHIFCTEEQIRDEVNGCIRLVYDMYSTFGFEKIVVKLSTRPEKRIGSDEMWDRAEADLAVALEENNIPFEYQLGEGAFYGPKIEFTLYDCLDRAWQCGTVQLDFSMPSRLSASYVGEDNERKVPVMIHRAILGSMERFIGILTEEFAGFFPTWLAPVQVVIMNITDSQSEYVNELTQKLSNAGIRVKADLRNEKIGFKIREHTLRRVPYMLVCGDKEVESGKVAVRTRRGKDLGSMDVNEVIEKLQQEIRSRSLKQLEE
T4 sequence (P0A8M3 242-642 G463A): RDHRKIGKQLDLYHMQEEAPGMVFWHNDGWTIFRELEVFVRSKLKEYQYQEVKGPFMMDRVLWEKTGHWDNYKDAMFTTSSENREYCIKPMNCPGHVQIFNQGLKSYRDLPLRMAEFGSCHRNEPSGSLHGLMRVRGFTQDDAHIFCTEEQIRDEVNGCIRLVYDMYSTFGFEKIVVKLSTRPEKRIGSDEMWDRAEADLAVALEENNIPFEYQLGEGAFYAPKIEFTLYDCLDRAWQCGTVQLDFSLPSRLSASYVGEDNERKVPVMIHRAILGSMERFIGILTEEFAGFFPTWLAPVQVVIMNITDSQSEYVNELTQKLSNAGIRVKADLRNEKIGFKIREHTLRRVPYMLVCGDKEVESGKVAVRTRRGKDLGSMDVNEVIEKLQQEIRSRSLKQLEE

O=C(N[C@@H]1C(=O)O[C@@H]1Cc1ccc([N+](=O)[O-])cc1)c1cccc(O)c1O [OB, Obafluorin]
IC50 ([1]; ATP hydrolysis activity): 848 nM | ATP hydrolysis activity, inhibitory curve data point ([1]; Log10 Conc. 0.690, A316N): 85.962 and 86.560 and 99.695 and 84.767 | ATP hydrolysis activity, inhibitory curve data point ([1]; Log10 Conc. 0.991, A316N): 88.637 and 98.163 and 100.359 and 100.821 | ATP hydrolysis activity, inhibitory curve data point ([1]; Log10 Conc. 1.290, A316N): 94.677 and 95.220 and 104.669 and 107.135 | ATP hydrolysis activity, inhibitory curve data point ([1]; Log10 Conc. 1.591, A316N): 79.114 and 84.617 and 87.973 and 87.592 | ATP hydrolysis activity, inhibitory curve data point ([1]; Log10 Conc. 1.892, A316N): 95.097 and 93.442 and 93.401 and 99.302 | ATP hydrolysis activity, inhibitory curve data point ([1]; Log10 Conc. 2.193, A316N): 78.735 and 83.708 and 90.525 and 92.235 | ATP hydrolysis activity, inhibitory curve data point ([1]; Log10 Conc. 2.494, A316N): 68.683 and 74.410 and 84.890 and 82.431 | ATP hydrolysis activity, inhibitory curve data point ([1]; Log10 Conc. 2.796, A316N): 50.753 and 55.935 and 67.595 and 73.554 | ATP hydrolysis activity, inhibitory curve data point ([1]; Log10 Conc. 3.097, A316N): 29.054 and 40.656 and 45.720 and 53.072 | ATP hydrolysis activity, inhibitory curve data point ([1]; Log10 Conc. 3.398, A316N): -3.828 and 7.860 and 7.462 and 26.771 | ATP hydrolysis activity, inhibitory curve data point ([1]; Log10 Conc. 3.699, A316N): 7.311 and 15.246 and 17.984 and 36.982 | IC50 ([2]; ATP hydrolysis activity): 215 nM | ATP hydrolysis activity, inhibitory curve data point ([2]; Log10 Conc. 3.097, L489M): 14.911 and 30.795 and 20.792 and 22.166 | ATP hydrolysis activity, inhibitory curve data point ([2]; Log10 Conc. 3.398, L489M): 25.404 and -0.594 and -13.763 and 3.682 | ATP hydrolysis activity, inhibitory curve data point ([2]; Log10 Conc. 3.699, L489M): 26.774 and 18.620 and -26.210 and 6.396 | ATP hydrolysis activity, inhibitory curve data point ([2]; Log10 Conc. 4.000, L489M): 5.096 and 5.493 and 1.083 and 8.709 | inhibition at 5 µM ([3]; 5 μM OB): ~10% | inhibitory activity ([3]; ATP hydrolysis activity): poor activity | ATP hydrolysis activity, inhibitory curve data point ([3]; Log10 Conc. 1.279, G463S): 106.793 and 98.818 and 94.863 and 99.954 | ATP hydrolysis activity, inhibitory curve data point ([3]; Log10 Conc. 1.597, G463S): 100.752 and 93.821 and 90.230 and 89.239 | ATP hydrolysis activity, inhibitory curve data point ([3]; Log10 Conc. 1.892, G463S): 119.110 and 112.303 and 110.507 and 107.832 | ATP hydrolysis activity, inhibitory curve data point ([3]; Log10 Conc. 2.193, G463S): 113.765 and 106.055 and 104.056 and 103.914 | ATP hydrolysis activity, inhibitory curve data point ([3]; Log10 Conc. 2.495, G463S): 113.955 and 101.766 and 100.028 and 98.945 | ATP hydrolysis activity, inhibitory curve data point ([3]; Log10 Conc. 2.796, G463S): 114.391 and 100.345 and 101.496 and 101.074 | ATP hydrolysis activity, inhibitory curve data point ([3]; Log10 Conc. 3.097, G463S): 109.765 and 91.814 and 95.122 and 94.032 | ATP hydrolysis activity, inhibitory curve data point ([3]; Log10 Conc. 3.398, G463S): 99.125 and 85.681 and 84.901 and 83.398 | ATP hydrolysis activity, inhibitory curve data point ([3]; Log10 Conc. 3.699, G463S): 98.676 and 85.750 and 87.909 and 87.887 | ATP hydrolysis activity, inhibitory curve data point ([3]; Log10 Conc. 4.000, G463S): 100.800 and 85.432 and 86.068 and 84.275 | inhibitory effect [4]: no inhibitory effect | inhibitory effect ([5]; ATP hydrolysis activity): no inhibitory effect | ATP hydrolysis activity, inhibitory curve data point ([5]; Log10 Conc. 1.290, ObaO_WT): 107.974 and 109.176 and 107.694 and 98.285 | ATP hydrolysis activity, inhibitory curve data point ([5]; Log10 Conc. 1.591, ObaO_WT): 108.081 and 109.543 and 108.587 and 102.335 | ATP hydrolysis activity, inhibitory curve data point ([5]; Log10 Conc. 1.892, ObaO_WT): 104.532 and 105.736 and 104.839 and 104.593 | ATP hydrolysis activity, inhibitory curve data point ([5]; Log10 Conc. 2.193, ObaO_WT): 105.347 and 104.330 and 104.759 and 104.369 | ATP hydrolysis activity, inhibitory curve data point ([5]; Log10 Conc. 2.494, ObaO_WT): 105.496 and 103.616 and 104.222 and 104.732 | ATP hydrolysis activity, inhibitory curve data point ([5]; Log10 Conc. 2.796, ObaO_WT): 106.437 and 103.177 and 103.705 and 104.207 | ATP hydrolysis activity, inhibitory curve data point ([5]; Log10 Conc. 3.097, ObaO_WT): 106.181 and 102.182 and 103.687 and 102.015 | ATP hydrolysis activity, inhibitory curve data point ([5]; Log10 Conc. 3.398, ObaO_WT): 106.327 and 105.039 and 104.877 and 99.875 | ATP hydrolysis activity, inhibitory curve data point ([5]; Log10 Conc. 3.699, ObaO_WT): 106.394 and 102.812 and 104.598 and 101.892 | ATP hydrolysis activity, inhibitory curve data point ([5]; Log10 Conc. 4.000, ObaO_WT): 107.419 and 105.942 and 102.834 and 91.914 | ATP hydrolysis activity, inhibitory curve data point ([5]; Log10 Conc. 4.301, ObaO_WT): 100.516 and 99.049 and 100.129 and 101.285 | IC50 ([6]; ATP hydrolysis activity): 3900 nM | ATP hydrolysis activity, inhibitory curve data point ([6]; Log10 Conc. 1.290, ObaO_S464G): 99.512 and 99.495 and 99.321 and 98.415 | ATP hydrolysis activity, inhibitory curve data point ([6]; Log10 Conc. 1.591, ObaO_S464G): 100.192 and 100.232 and 100.159 and 99.124 | ATP hydrolysis activity, inhibitory curve data point ([6]; Log10 Conc. 1.892, ObaO_S464G): 100.052 and 100.356 and 99.951 and 99.355 | ATP hydrolysis activity, inhibitory curve data point ([6]; Log10 Conc. 2.193, ObaO_S464G): 99.838 and 99.793 and 100.063 and 99.551 | ATP hydrolysis activity, inhibitory curve data point ([6]; Log10 Conc. 2.494, ObaO_S464G): 100.255 and 99.793 and 99.917 and 100.035 | ATP hydrolysis activity, inhibitory curve data point ([6]; Log10 Conc. 2.796, ObaO_S464G): 99.484 and 99.326 and 99.169 and 98.438 | ATP hydrolysis activity, inhibitory curve data point ([6]; Log10 Conc. 3.097, ObaO_S464G): 97.897 and 97.852 and 97.621 and 97.352 | ATP hydrolysis activity, inhibitory curve data point ([6]; Log10 Conc. 3.398, ObaO_S464G): 93.815 and 92.992 and 93.578 and 91.403 | ATP hydrolysis activity, inhibitory curve data point ([6]; Log10 Conc. 3.699, ObaO_S464G): 77.343 and 76.749 and 76.793 and 77.009 | ATP hydrolysis activity, inhibitory curve data point ([6]; Log10 Conc. 4.000, ObaO_S464G): 40.598 and 39.832 and 38.831 and 45.976 | ATP hydrolysis activity, inhibitory curve data point ([6]; Log10 Conc. 4.301, ObaO_S464G): -1.615 and -1.887 and 0.161 and 3.342 | ΔTm (increase of Tm) [7, 9]: 3.2 °C | ΔTm, single replicates ([7]; source data sheet Fig.S11a, ObaO_WT, in °C (unit assumed)): 3.257 and 4.712 and 2.142 and 2.576 | ΔTm (increase of Tm) [8, 9]: 14.1 °C | ΔTm, single replicates ([8]; source data sheet Fig.S11a, ObaO_S464G, in °C (unit assumed)): 14.753 and 14.195 and 14.134 and 13.328
